Assay results reported in patent publication US20260294845A1, “Uses of Adrenalone to Manage Cardiotoxicity or Cardiovascular Disorders” (Emory University, priority 2023, published 2026).
Entries after “also recorded” stand apart in the source; their conditions may differ.

Key:
α1-AR [1] = test: Staining of hiPSC-CMs with BODIPY-FL-prazosin for α1-AR expression; format: cell-based, human; details: fluorescent staining, α1-AR expression and localization
Text: The expression of α1-AR was detected in hiPSC-CMs based on the BODIPY FL prazosin signals.

α1-AR [2] = details: literature knowledge; cited from earlier work
hiPSC-CMs [3] = test: Cell viability of hiPSC-CMs treated with doxorubicin with or without 4H10 (CellTiter-Blue); format: cell-based, human
Text: Doxorubicin is a widely used chemotherapy drug for various cancers, including breast cancer, leukemia, and lymphoma. However, one significant side effect associated with doxorubicin use is cardiotoxicity. It is contemplated that 4H10 may target common mechanisms of cardiotoxicity and have a broad impact of cardioprotection since it protects hiPSC-CMs from toxicity induced by both ethanol and carfilzomib.

patients = details: cancer patients on therapy; cited from earlier work
hiPSC-CMs [4] = test: Effects of chemotherapeutic agents on function of hiPSC-CMs; format: cell-based, human; details: melphalan treatment
hiPSC-CMs [5] = test: Cell viability of hiPSC-CMs treated with carfilzomib with or without 4H10 (CellTiter-Blue); format: cell-based, human; details: for mitigation of carfilzomib-induced cytotoxicity: co-treatment of hiPSC-CMs with carfilzomib
Protocol: Cell viability was analyzed after IMR-90 hiPSC-CMs were treated with carfilzomib (CFZ) with or without 4H10 for 24 hours. (n=5 cultures).
(§1) A human induced pluripotent cell line (hiPSC line IMR90™, WiCell Research Institute) was fed daily on Matrigel™-coated plates with a defined medium for hiPSC culture, mTeSR1 medium. For CM differentiation, hiPSCs were induced using a growth factor-driven differentiation protocol as reported in Jha et al. Efficient differentiation of cardiomyocytes from human pluripotent stem cells with growth factors. Methods Mol Biol, 2015, 1299, 115-131. On the day of induction (day 0), medium was replaced with RPMI 1640 medium supplemented with 2% B27 minus insulin (a cell culture supplement) containing 100 ng/ml activin A. After induction for 24 h, the medium was replaced with fresh RPMI supplemented with 2% B27 minus insulin containing 10 ng/ml BMP4. From day 4 of differentiation, the medium was replaced with RPMI supplemented with 2% B27. On day 5, the cells were dissociated and reseeded into AggreWell400™ plates to acquire cardiac spheres. After 24 h, the cardiac spheres formed were collected and transferred to low-adhesion dishes for suspension culture. The medium was changed every other day. Cardiac spheres typically started beating spontaneously by day 7 to 9.
(§2) Cardiomyocytes derived from human pluripotent stem cells (hiPSC-CMs) were provide a new platform for the studies of cancer drug-induced side effects and therapies. Using these cells, lead molecules were identified indicating protective properties on cardiomyocytes from the toxic effect of chemotherapy agents and ethanol (EtOH). […] Oxidative stress is a common molecular mechanism for cardiotoxicity induced by chemotherapy including proteosome inhibitors.
Consistently, treatment of hiPSC-CMs induced cell death and cytotoxicity. To examine if 4H10 could protect cardiomyocytes from carfilzomib-induced cytotoxicity, hiPSC-CMs were treated with carfilzomib at 5 μM alone or together with 4H10 at various concentrations for 24 h and then examined cell viability using the CellTiter-Blue Cell Viability Assay. Cells treated with DMSO (vehicle) were used as a control.

hiPSC-CMs [6] = test: MitoTracker Red staining (mitochondrial content and activity) of carfilzomib-treated hiPSC-CMs, high-content imaging; format: cell-based, human; details: 24 h
Protocol: MitoTracker™ Red staining was performed in IMR-90 hiPSC-CMs treated with CFZ with or without 4H10 for 24 hours.
as §1
Mitochondria play a crucial role in energy production, cellular metabolism, and the regulation of cell death. Experiments indicate carfilzomib induces mitochondrial dysfunction in hiPSC-CMs. To assess the potential mitigating effects of 4H10 on carfilzomib-induced mitochondrial dysfunction, hiPSC-CMs were treated with carfilzomib alone or co-treated with 4H10 at various concentrations. Mitochondria were then visualized using MitoTracker™ Red dyes, which can accumulate in active mitochondria and allow for the measurement of mitochondrial content and activity in live cells.

hiPSC-CMs [7] = test: Intracellular oxidative stress (ROS) of carfilzomib-treated hiPSC-CMs, DCFDA/H2DCFDA assay; format: cell-based, human; details: 24 h
Protocol: The quantification of oxidative stress was performed using DCFDA staining of SCVI hiPSC-CMs treated with Cfz with or without 4H10 for 24 hours.
The induction of oxidative stress is a crucial mechanism through which proteasome inhibitors induce apoptosis. To investigate if 4H10 could alleviate carfilzomib-induced increase of oxidative stress in cardiomyocytes, hiPSC-CMs were exposed to carfilzomib at 5 μM alone or together with 4H10 at various concentrations for 24 h. The production of cellular reactive oxygen species (ROS) was then measured using DCFDA/H2DCFDA assay kit.

proteasome [8] = test: Proteasome activity in hiPSC-CMs after carfilzomib with or without 4H10; format: cell-based, human; details: 4H10 co-treatment with carfilzomib, 24 h, IMR-90 hiPSC-CMs
Protocol: (§3) (top) Proteasome activity of IMR-90 hiPSC-CMs was measured after the cells were treated with CFZ with or without 4H10 for 24 hours. (bottom, right, left) Proteasome activity and cell viability of RPMI8226 cells (cancer cells) were measured after the cells were treated with CFZ with or without 4H10 for 24 hours.
The proteasome, responsible for the regulated degradation of proteins, is a key cellular component targeted by carfilzomib as part of its mechanism of action in cancer therapy. Therefore, in addition to validation of cardioprotective effects of 4H10 on cell viability and mitochondrial function, it is crucial to examine if 4H10 compromises the proteasome inhibition efficacy of carfilzomib.

proteasome [9] = test: Proteasome activity in RPMI8226 cells after carfilzomib with or without 4H10; format: cell-based; details: 4H10 with carfilzomib, 24 h
Protocol: as §3
(§4) Experiments were designed to determine the effects of carfilzomib and 4H10 on proteasome activity and cell viability of RPMI8226 cell line, which has been investigated for the efficacy tests of carfilzomib in […].

RPMI8226 cells = test: Cell viability of RPMI8226 cells after carfilzomib with or without 4H10; format: cell-based; details: 4H10 co-treatment with carfilzomib, 24 h
Protocol: as §3, §4

hiPSC-CMs [10] = test: Cell viability assay and cell counting (high-content imaging) of EtOH-challenged hiPSC-CMs; format: cell-based, human
Text: (§5) EtOH-induced cardiotoxicity shares common disease phenotypes and possibly similar underlying mechanisms with drug-induced cardiotoxicity.

SCVI-273 hiPSC-CMs = test: Cell viability of EtOH-treated hiPSC-CMs derived from SCVI-273 hiPSCs; format: cell-based, human; details: another cell line SCVI-273
Text: as §5

hiPSC-CMs [11] = test: Oxidative stress in EtOH-treated hiPSC-CMs; format: cell-based, human
Text: as §5

hiPSC-CMs [12] = test: Cardiac troponin T expression and mitochondrial content in EtOH-treated hiPSC-CMs; format: cell-based, human
Text: as §5

hiPSC-CMs [13] = test: Mitochondrial oxidative stress caused by bortezomib (PS-341); format: cell-based, human; details: with bortezomib
Text: as §2

hiPSC-CMs [14] = test: Chronic ethanol exposure of hiPSC-CMs: cellular properties, functions and global proteomic profiling; format: cell-based, human
Protocol: Cardiomyocytes derived from human pluripotent stem cells (hiPSC-CMs) were treated with clinically relevant doses of ethanol for various durations up to 5 weeks. The treated cells were characterized for their cellular properties and functions, and global proteomic profiling was conducted.

hiPSC-CMs [15] = details: Liu et al., 2021; cited from earlier work
[16] = clinically relevant doses of ethanol, up to 5 weeks

BODIPY-FL-prazosin
BODIPY FL prazosin signals in hiPSC-CMs (α1-AR [1]): co-localized with nuclei | α1-AR affinity / antagonism (α1-AR [2]): high-affinity antagonist

COc1cccc2c1C(=O)c1c(O)c3c(c(O)c1C2=O)C[C@@](O)(C(=O)CO)C[C@@H]3O[C@H]1C[C@H](N)[C@H](O)[C@H](C)O1 [doxorubicin]
cell viability after doxorubicin (hiPSC-CMs [3]; doxorubicin 1-10 μM alone, 24 h, compared with untreated cells): significant decrease in cell viability | cardiac adverse events in patients (patients): cardiotoxicity

melphalan
cardiotoxicity in hiPSC-CMs: cardiac function (hiPSC-CMs [4]): abnormal cardiac function | cardiotoxicity in hiPSC-CMs: oxidative stress (hiPSC-CMs [4]): induces cardiotoxicity, including oxidative stress | cardiac adverse events in patients (patients): clinically observed arrhythmias

CNCC(=O)c1ccc(O)c(O)c1 [4H10]
maximal cytoprotective effect against carfilzomib (hiPSC-CMs [5]; 4H10 at 25 μM and 50 μM + carfilzomib 5 μM, 24 h): maximal cytoprotective effect for the cells to reach viability levels similar to those from DMSO-treated cells | cell viability after co-treatment with carfilzomib and 4H10 (hiPSC-CMs [5]; carfilzomib 5 μM + 4H10 at 5 μM or higher, 24 h, compared (so in the source) with DMSO-treated cells): significantly increased cell viability | mitigation of carfilzomib-induced cytotoxicity (hiPSC-CMs [5]): protection of hiPSC-CMs from carfilzomib-induced cardiotoxicity; also recorded: reduced cytotoxicity was observed; also recorded: mitigated carfilzomib-induced cytotoxicity in a dose-dependent manner | mitigation of carfilzomib-induced cytotoxicity (hiPSC-CMs [5]; listed as adrenalone HCl): protected hiPSC-CMs from cardiotoxicity induced by carfilzomib | MitoTracker Red fluorescence intensity on co-treatment (hiPSC-CMs [6]; 4H10 at 10 μM or higher + carfilzomib, dose-dependent): increase in fluorescence intensity | mitigation of carfilzomib-induced mitochondrial defects (hiPSC-CMs [6]; co-treatment with carfilzomib): mitigates carfilzomib-induced mitochondrial defects; also recorded: mitigated carfilzomib-induced mitochondrial defects in hiPSC-CMs in a dose-dependent manner | DCFDA fluorescence intensity on co-treatment (hiPSC-CMs [7]; 4H10 at 5 μM or higher + carfilzomib 5 μM, dose-dependent): reduction of DCFDA fluorescence intensity | mitigation of carfilzomib-induced oxidative stress (hiPSC-CMs [7]; co-treatment with carfilzomib, SCVI hiPSC-CMs): mitigates carfilzomib-induced intracellular oxidative stress; also recorded: mitigated carfilzomib-induced oxidative stress in hiPSC-CMs in a dose-dependent manner | effect on proteasome inhibition activity of carfilzomib (proteasome [8]): does not interfere with the proteasome inhibition activity of carfilzomib; also recorded: did not interfere with the proteasome inhibition activity of carfilzomib | change of proteasome activity in RPMI8226 cells by 4H10 (proteasome [9]): did not elicit any changes | change of carfilzomib-reduced RPMI8226 viability by 4H10 co-treatment (RPMI8226 cells): does not interfere with the proteasome inhibition activity of carfilzomib and the ability of carfilzomib to kill cancer cells; also recorded: not significantly changed | cell viability after co-treatment with doxorubicin and 4H10 (hiPSC-CMs [3]; 4H10 25 μM + doxorubicin 1, 2, 5 or 10 μM, 24 h, compared with doxorubicin): increased cell viability | mitigation of doxorubicin-induced cytotoxicity (hiPSC-CMs [3]; 4H10 co-treatment with doxorubicin): protects hiPSC-CMs from doxorubicin-induced cytotoxicity; also recorded: mitigated doxorubicin-induced cytotoxicity | protection from alcohol-induced cytotoxicity (hiPSC-CMs [10]; hiPSC-CMs): can protect hiPSC-CMs from alcohol- and carfilzomib-induced cytotoxicity | cell survival following EtOH challenge (hiPSC-CMs [10]; hiPSC-CMs challenged with EtOH, cell viability assay and cell counting): increased cell survival dose-dependently | cell number after EtOH treatment (hiPSC-CMs [10]; high-content imaging): attenuated the reduced cell number induced by EtOH treatment | cell viability, EtOH-treated SCVI-273 hiPSC-CMs (SCVI-273 hiPSC-CMs): increased cell viability | oxidative stress in EtOH-treated hiPSC-CMs (hiPSC-CMs [11]): reduced oxidative stress | defects in expression of cardiac troponin T (hiPSC-CMs [12]): reduced | defects in mitochondrial content (hiPSC-CMs [12]): reduced

CNCC(=O)c1ccc(O)c(O)c1 [Adrenalone, 1-(3,4-dihydroxyphenyl)-2-(methylamino) ethan-1-one]
mitochondrial oxidative stress caused by bortezomib (PS-341) (hiPSC-CMs [13]): reduced mitochondrial oxidative stress

CCO [ethanol]
Ca^2+ handling (hiPSC-CMs [14]; [16]): deranged Ca^2+ handling | action potential (hiPSC-CMs [14]; [16]): abnormal action potential | cell death (hiPSC-CMs [14]; [16]): Increased cell death | contractility (hiPSC-CMs [14]; [16]): altered contractility | oxidative stress (hiPSC-CMs [14]; [16]): Increased cell death, oxidative stress | structure development (hiPSC-CMs [14]; [16]): suppressed structure development | global proteomic profiling: dysregulated proteins (hiPSC-CMs [14]; ethanol, up to 5 weeks): Many dysregulated proteins identified by global proteomic profiling were involved in apoptosis, heart contraction, and extracellular collagen matrix | signaling pathways affected (hiPSC-CMs [14]; long-term ethanol exposure): several signaling pathways including the Wnt and TGFβ signaling pathways were affected | changes in hiPSC-CMs on chronic ethanol exposure (hiPSC-CMs [15]): induces deleterious changes in cardiomyocytes
